The text below walks through data of ChEMBL document CHEMBL5321272 (J Med Chem, 2023).

In one data set the target is hERG (KCNH2) (Homo sapiens, UniProt Q12809). The data set is described as follows: Inhibition of hERG expressed in HEK293 cells at 20 uM by whole cell patch clamp analysis. It is filed as toxicity, cell-based. The following applies: HEK293 cells expressing hERG.
Data set [1] has as its target Mast/stem cell growth factor receptor Kit (Homo sapiens, UniProt P10721). Description: Inhibition of c-KIT (unknown origin) using peptide substrate TK-S and ATP as substrate incubated for 1 hr by HTRF assay. In kind it is toxicity.
The nature of data set [2]: Selectivity ratio of IC50 for inhibition of c-KIT (unknown origin) to IC50 for inhibition of FLT3 D835Y mutant (unknown origin).
The subject of data set [3] is BaF3. The data set is described as follows: Antiproliferative activity against mouse BaF3 cells harboring FLT3 D835V mutant assessed as reduction in cell viability incubated for 72 hrs by CellTiter 96 Aqueous One Solution Cell Proliferation Assay. It is filed as functional, cell-based.
Data set [4] concerns BaF3. The data set is described as follows: Antiproliferative activity against mouse BaF3 cells harboring FLT3 D835F mutant assessed as reduction in cell viability incubated for 72 hrs by CellTiter 96 Aqueous One Solution Cell Proliferation Assay. In kind it is functional, cell-based.
Data set [5] relates to BaF3. The data set is described as follows: Antiproliferative activity against mouse BaF3 cells harboring FLT3 F691L mutant assessed as reduction in cell viability incubated for 72 hrs by CellTiter 96 Aqueous One Solution Cell Proliferation Assay. In kind it is functional, cell-based.
The nature of data set [6]: Half life in ICR mouse at 10 mg/kg, po. It is filed as ADME, organism-based. The following applies: in vivo.
Data set [7] is described as follows: Tmax in ICR mouse at 10 mg/kg, po. In kind it is ADME, organism-based. The following applies: in vivo.
The nature of data set [8]: Cmax in ICR mouse at 10 mg/kg, po. Further details: dose 10 mg/kg, route po. It is filed as ADME, organism-based. The following applies: in vivo.
Data set [9] can be described thus: AUC (last) in ICR mouse at 10 mg/kg, po. In kind it is ADME, organism-based. The following applies: in vivo. Further details: dose 10 mg/kg, route po.
Data set [10] is described as follows: AUC (infinity) in ICR mouse at 10 mg/kg, po. In kind it is ADME, organism-based. Further details: dose 10 mg/kg, route po. The following applies: in vivo.
Data set [11] in a line: MRT (infinity) in ICR mouse at 10 mg/kg, po. It is filed as ADME, organism-based. The following applies: in vivo.
Data set [12] concerns the target Receptor-type tyrosine-protein kinase FLT3 (Homo sapiens, UniProt P36888, D835Y).
Description: Inhibition of FLT3 D835Y mutant (unknown origin) using peptide substrate TK-S and ATP as substrate incubated for 1 hr by HTRF assay
The target in data set [13] is T1, Serine/threonine-protein kinase Chk1 (Homo sapiens, UniProt O14757).
T1 sequence (O14757 whole entry): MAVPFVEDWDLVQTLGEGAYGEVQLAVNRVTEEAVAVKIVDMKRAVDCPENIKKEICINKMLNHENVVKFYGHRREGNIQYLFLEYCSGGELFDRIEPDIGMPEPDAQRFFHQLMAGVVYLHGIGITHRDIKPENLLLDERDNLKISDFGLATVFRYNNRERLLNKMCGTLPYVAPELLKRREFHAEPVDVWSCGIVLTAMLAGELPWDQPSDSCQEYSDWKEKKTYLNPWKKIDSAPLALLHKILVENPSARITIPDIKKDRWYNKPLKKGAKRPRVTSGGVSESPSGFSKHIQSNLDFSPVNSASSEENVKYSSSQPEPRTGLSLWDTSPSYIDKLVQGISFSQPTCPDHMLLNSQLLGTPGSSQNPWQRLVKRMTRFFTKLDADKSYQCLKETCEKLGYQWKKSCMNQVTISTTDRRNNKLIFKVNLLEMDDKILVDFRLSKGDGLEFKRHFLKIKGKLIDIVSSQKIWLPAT
Description: Inhibition of CHK1 (unknown origin) using peptide substrate S1 and ATP as substrate incubated for 1 hr by HTRF assay

The test system of another data set is MV4-11. The data set is described as follows: cells. The following applies: Homo sapiens, MV4-11, 72 h.

Calls of active or inactive are those of the source. No cut-off for these calls is given here.

hERG (KCNH2), sequence (Q12809 whole entry): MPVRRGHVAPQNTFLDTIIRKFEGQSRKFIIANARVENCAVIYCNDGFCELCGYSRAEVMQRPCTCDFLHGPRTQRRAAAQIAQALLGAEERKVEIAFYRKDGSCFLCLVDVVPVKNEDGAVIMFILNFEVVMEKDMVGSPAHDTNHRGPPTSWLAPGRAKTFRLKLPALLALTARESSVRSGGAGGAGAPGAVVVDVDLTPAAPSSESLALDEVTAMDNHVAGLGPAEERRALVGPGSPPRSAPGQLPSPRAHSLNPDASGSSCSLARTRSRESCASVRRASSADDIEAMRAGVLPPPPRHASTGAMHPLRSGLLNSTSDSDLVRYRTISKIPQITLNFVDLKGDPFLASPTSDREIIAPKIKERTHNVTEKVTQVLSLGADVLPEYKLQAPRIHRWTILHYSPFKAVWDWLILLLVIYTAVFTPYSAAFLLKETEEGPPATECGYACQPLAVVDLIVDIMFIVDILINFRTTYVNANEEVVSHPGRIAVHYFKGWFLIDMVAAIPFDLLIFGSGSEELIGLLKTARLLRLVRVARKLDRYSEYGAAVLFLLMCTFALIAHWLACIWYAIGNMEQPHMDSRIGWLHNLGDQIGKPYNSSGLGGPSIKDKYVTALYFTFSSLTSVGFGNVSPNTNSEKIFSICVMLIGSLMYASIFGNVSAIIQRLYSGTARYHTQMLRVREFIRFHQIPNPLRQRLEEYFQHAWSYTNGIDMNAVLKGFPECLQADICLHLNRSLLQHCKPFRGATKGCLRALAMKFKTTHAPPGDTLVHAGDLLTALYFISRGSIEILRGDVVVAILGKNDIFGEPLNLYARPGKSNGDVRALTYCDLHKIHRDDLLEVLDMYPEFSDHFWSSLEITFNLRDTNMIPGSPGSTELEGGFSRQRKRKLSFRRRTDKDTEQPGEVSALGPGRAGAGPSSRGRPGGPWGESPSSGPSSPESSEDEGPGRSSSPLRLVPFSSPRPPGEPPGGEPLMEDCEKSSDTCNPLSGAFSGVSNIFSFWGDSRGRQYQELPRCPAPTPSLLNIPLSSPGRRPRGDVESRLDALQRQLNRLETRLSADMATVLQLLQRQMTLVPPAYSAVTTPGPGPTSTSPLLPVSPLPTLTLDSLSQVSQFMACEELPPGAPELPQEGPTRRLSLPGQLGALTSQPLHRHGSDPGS
Mast/stem cell growth factor receptor Kit, sequence (P10721 whole entry): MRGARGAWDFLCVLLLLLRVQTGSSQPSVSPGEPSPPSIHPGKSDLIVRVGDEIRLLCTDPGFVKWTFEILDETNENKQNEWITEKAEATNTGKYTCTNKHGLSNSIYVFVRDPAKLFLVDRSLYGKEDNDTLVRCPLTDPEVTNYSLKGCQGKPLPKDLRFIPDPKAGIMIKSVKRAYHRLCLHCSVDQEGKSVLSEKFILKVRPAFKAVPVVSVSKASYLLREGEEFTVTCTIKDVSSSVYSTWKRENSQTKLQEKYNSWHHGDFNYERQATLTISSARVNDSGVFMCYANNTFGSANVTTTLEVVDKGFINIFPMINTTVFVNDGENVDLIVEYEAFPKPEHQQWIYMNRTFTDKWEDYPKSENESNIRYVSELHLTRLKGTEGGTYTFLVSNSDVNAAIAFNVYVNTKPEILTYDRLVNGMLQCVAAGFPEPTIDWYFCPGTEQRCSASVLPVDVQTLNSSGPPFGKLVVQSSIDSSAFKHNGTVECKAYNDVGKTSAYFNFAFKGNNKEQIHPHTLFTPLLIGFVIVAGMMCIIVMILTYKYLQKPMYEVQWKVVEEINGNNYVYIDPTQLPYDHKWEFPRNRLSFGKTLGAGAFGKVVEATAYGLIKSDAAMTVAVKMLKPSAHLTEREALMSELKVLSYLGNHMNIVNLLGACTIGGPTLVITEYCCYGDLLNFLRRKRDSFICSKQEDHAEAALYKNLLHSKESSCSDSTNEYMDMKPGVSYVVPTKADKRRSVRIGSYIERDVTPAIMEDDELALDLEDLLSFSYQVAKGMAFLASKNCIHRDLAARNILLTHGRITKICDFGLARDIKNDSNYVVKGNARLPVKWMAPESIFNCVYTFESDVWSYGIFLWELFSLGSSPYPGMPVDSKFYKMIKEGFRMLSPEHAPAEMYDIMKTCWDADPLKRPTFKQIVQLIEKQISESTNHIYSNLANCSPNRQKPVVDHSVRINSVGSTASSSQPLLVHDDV
Description for MV4-11: Antiproliferative activity against human MV4-11 cells assessed as reduction in cell viability incubated for 72 hrs by CellTiter 96 Aqueous One Solution Cell Proliferation Assay

Compound `CC(C)(O)CC(=O)N1Cc2ccc(Nc3ncc(C(F)(F)F)c(N[C@H]4CC[C@@H](N)CC4)n3)cc2C1` displayed an inhibition at 20 µM against hERG (KCNH2) of 19.3%. In addition, the half-inhibitory concentration (IC50) is 2460 nM in data set [1], 1.12 nM in [12], 12.5 nM in data set [13] and 0.48 nM with MV4-11. For the same compound, in data set [2], the Ratio IC50 was 2200. Moreover, the result in the data set on BaF3 [3], in the data set with BaF3 [4] and in the data set on BaF3 [5] was Active. This compound also had a half-life in [6] of 0.81 h. Moreover, the time to peak (Tmax) in data set [7] amounted to 1 h. In [8], the highest level (Cmax) was 42.5 ng/mL. This compound also registered an area under the curve AUC(0-t) in data set [9] of 99.6 ng·h/mL. The compound further gave an AUC(0-inf) in data set [10] of 104 ng·h/mL. In data set [11], this compound showed an MRT inf of 1.67 h.
